The target of one experiment is T1, PI3Kα (Homo sapiens, UniProt P42336).
T1 construct: His
The experiment in a line: PI3K Alpha Leadseeker SPA Assay. The class given is biochemical. The note with it: His-p110/p85 PI3K alpha, SPA imaging beads, P33-ATP; read-out: IC50 against PI3Kα. As for the experimental part: PI3K Alpha Leadseeker SPA Assay
Compounds of the present invention were tested according to the following assays and found as inhibitors of PI3 kinases, particularly PI3Kα. The activities (IC50) range from 1 to 500 μM against PI3Kα.
SPA imaging beads are microspheres containing scintillant which emit light in the red region of the visible spectrum. As a result, these beads are ideally suited to use with a CCD imager such as the Viewlux. The Leadseeker beads used in this system are polystyrene beads that have been coupled with polyethyleneimine. When added to the assay mixture, the beads absorb both the substrate (PIP2) and product (PIP3). Adsorbed P^33-PIP3 will cause an increase in signal, measured as ADUs (analog to digital units). This protocol details the use of the PEI-PS Leadseeker beads for assays using His-p110/p85 PI3K alpha.
Solid compounds are typically plated with 0.1 μl of 100% DMSO in all wells (except column 6 and 18) of a 384-well, flat bottom, low volume plate (Greiner 784075). […]
The assay buffer contains MOPS (pH 6.5), CHAPS, and DTT. […] The signal is determined using a Viewlux detector and is then imported into curve fitting software (Activity Base) for construction of concentration response curves. […]

The subject of the next experiment is Class I PI3-kinases. The note with it: wortmannin, background section; read-out: IC50 against each of the various Class I PI3-kinases; cited from earlier work.

Among the data in US20080255115A1, “THIAZOLIDINEDIONE DERIVATIVES AS PI3 KINASE INHIBITORS” (priority 2007, published 2008) are IC50 values, retold here.

T1 sequence (P42336 whole entry): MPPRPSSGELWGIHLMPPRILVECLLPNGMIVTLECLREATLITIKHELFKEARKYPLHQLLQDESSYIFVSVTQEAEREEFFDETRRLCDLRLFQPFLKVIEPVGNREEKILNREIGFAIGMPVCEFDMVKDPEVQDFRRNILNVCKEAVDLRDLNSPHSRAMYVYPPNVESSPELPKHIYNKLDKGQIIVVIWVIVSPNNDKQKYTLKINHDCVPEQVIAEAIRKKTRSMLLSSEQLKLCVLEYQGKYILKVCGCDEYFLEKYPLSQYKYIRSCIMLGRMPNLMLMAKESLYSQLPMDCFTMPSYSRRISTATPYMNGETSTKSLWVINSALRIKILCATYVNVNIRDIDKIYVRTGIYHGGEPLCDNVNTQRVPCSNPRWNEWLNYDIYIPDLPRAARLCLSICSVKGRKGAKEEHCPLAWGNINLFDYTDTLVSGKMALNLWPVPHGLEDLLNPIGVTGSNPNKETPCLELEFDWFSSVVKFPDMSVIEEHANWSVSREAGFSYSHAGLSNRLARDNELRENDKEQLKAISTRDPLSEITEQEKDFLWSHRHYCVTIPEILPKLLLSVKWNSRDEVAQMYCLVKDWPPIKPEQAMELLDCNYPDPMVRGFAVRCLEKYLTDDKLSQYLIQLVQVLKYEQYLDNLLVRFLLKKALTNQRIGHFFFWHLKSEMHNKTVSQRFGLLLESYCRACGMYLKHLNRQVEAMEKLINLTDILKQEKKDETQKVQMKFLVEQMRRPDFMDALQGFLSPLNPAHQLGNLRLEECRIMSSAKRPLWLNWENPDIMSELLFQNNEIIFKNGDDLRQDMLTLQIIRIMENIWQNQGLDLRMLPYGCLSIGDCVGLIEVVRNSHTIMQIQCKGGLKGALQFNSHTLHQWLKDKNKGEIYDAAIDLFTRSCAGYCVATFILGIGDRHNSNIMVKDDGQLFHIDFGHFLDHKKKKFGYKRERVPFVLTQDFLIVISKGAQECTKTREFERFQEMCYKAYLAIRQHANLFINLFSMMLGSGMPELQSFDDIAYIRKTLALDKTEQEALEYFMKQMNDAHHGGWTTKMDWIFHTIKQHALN
T1 sequence (P27986 whole entry partner): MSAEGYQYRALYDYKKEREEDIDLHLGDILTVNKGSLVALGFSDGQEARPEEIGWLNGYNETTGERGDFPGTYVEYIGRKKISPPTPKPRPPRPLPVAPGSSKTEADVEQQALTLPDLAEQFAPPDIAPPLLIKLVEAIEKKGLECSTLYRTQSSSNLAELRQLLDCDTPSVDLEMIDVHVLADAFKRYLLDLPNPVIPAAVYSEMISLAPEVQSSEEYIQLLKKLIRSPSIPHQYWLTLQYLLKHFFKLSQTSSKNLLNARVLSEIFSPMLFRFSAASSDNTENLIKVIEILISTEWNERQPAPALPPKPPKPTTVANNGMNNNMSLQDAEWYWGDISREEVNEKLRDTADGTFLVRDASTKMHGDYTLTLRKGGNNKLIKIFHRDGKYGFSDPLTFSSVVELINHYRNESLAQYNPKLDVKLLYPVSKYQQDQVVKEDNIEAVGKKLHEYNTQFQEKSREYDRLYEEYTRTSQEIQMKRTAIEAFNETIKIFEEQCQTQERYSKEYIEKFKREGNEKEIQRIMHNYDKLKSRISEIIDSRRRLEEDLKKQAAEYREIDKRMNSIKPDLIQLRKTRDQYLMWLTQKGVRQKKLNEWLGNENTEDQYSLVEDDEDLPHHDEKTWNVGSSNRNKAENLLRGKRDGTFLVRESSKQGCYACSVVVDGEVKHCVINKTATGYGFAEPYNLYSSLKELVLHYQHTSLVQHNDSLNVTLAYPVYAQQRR

For `O=C1NC(=O)/C(=C/c2ccc3nccc(-c4ccncc4)c3c2)S1` [Example 1, (5Z)-5-{[4-(4-pyridinyl)-6-quinolinyl]methylidene}-1,3-thiazolidine-2,4-dione], at PI3Kα, the IC50 amounted to 1000 nM. As to `COC[C@H]1OC(=O)c2coc3c2[C@@]1(C)C1=C(C3=O)[C@@H]2CCC(=O)[C@@]2(C)C[C@H]1OC(C)=O` [wortmannin], the IC50 in the experiment on Class I PI3-kinases was 1 to 10 nM.
